Tests used:
human CB1 receptor [1] = target: T1, human CB1 receptor (Homo sapiens, UniProt P21554); assay: bioSensAll GAPL-Gi2 BRET biosensor assay (antagonism of CP-55,940); type: cell-based; details: HEK293 cells transfected with hCB1 and GAPL-Gi2 biosensor, EC75 of CP-55,940 (0.1 nM), overnight incubation, read-out: CB1 wt Gi2 IC50
T1 construct: expressed in transfected cells; host or cells: HEK293
Experimental: (§1) Using polyethylenimine (PEI) transfection agent, HEK293 cells were transfected in suspension with the human CB1 or CB1b receptor and one of the following bioSensAll® assays: GAPL-Gi2, or β-arrestin plasma membrane (PM) translocation biosensor (+GRK2). Cells were directly seeded in 96-well plates immediately following transfection.
(§2) Cells were incubated with coelenterazine (luciferase substrate) and different test compounds prior to the measurement of BRET signals.
i) GAPL sensors are used to monitor the activation of heterotrimeric G proteins at the plasma membrane upon receptor stimulation. Specifically, these multimolecular BRET sensors detect the plasma membrane recruitment of proteins that interact with active Ga subunits in a G protein family-selective manner. G protein activation following receptor stimulation generally leads to an increase in the BRET signal.
(§3) HEK293 cells were maintained in Dulbecco's Modified Eagle Medium (DMEM) (Wisent; cat #319-030-CL: without sodium pyruvate, with 4.5 g/L glucose, without L-glutamine) supplemented with 1% penicillin-streptomycin (Wisent; cat #450-201-EL) and 2 or 10% fetal bovine serum (Wisent cat #090150).
(§4) HEK293 cells were co-transfected with hCB1 or hCB1b and one of the above-listed bioSensAll® assays. For each transfection condition: • the total amount of transfected DNA was kept constant at 1 μg per mL of cell culture to be transfected; whenever necessary, salmon sperm DNA (Invitrogen, cat #15632011) was used as ‘carrier’ DNA to supplement plasmid DNA (i.e., biosensor and receptor); • the PEI (polyethylenimine 25 kDa linear, PolyScience, cat #23966) to DNA ratio (ug:ug) was fixed at 3:1.
(§5) Transfections were carried out as follows: • DNA and PEI were first diluted separately in 150 mM NaCl. The volume of the diluent in each tube corresponds to 5% of the cell culture volume to be transfected. • Once DNA and PEI were diluted, the PEI-containing solution was added to the DNA solution and the DNA/PEI mixture immediately vortexed for 5 seconds. • The DNA/PEI mixture was incubated for at least 20 minutes at room temperature to allow for the formation of DNA/PEI complexes. • During the incubation, HEK293 cells were detached, counted and re-suspended in culture medium (composition specified above). • At the end of the incubation period, the DNA/PEI mixture was added to the cells. • Cells were finally distributed in 96-well plates (White Opaque 96-well/Microplates, Greiner, cat #655083 or CulturPlate-96, White Opaque 96-well Microplate, PerkinElmer, cat #6005688) at a density of 30 000 cells per well.
(§6) At ˜48 hours post-transfection: • Using 450-Select TS Biotek plate washer, culture medium was aspirated and replaced with 100 μl of Hank's Balanced Salt Solution buffer (HBSS) (Wisent, cat #319-067CL: without red phenol; with sodium bicarbonate, with calcium and magnesium, with HEPES) per well. This process was performed a total of two times (i.e., 2 washes). • After the washing step, the HP D300 digital dispenser (Tecan) was used to inject increasing doses (12) of test compounds (ranging from 0-600 nM) to wells. Three to five minutes later, an EC75 of CP-55,940 (0.1 nM for GAPL-Gi2 assay; 100 nM for β-arrestin PM translocation biosensor (+GRK2)) was added to columns 2-12 of each 96-well plate.
(§7) BRET signals were determined by calculating the ratio of light emitted by GFP-acceptor (515 nm) over light emitted by luciferase-donor (400 nm). All BRET ratios were standardized using the equation below with pre-established BRET values for positive and negative controls. The standardized BRET ratio is referred to as universal BRET (uBRET).
(§8) Resulting dose-response curves were fitted using the four-parameter logistic non-linear regression model in GraphPad Prism 9.

human CB1 receptor [2] = target: T1, human CB1 receptor; assay: bioSensAll β-arrestin plasma membrane translocation BRET biosensor (+GRK2) assay (antagonism of CP-55,940); type: cell-based; details: HEK293 cells transfected with hCB1 and β-arrestin PM translocation biosensor (+GRK2), EC75 of CP-55,940 (100 nM), overnight incubation, read-out: CB1 wt βarr2 IC50
Experimental: as §1, §2
ii) The multimolecular β-arrestin membrane recruitment biosensors allow for real-time spatio-temporal monitoring of β-arrestin 1 and β-arrestin 2 following GPCR activation. Specifically, these β-arrestin sensors were designed to detect the recruitment of proteins to the plasma membrane (β-arrestin PM) with localization to compartment resulting in an increased BRET signal.
as §3, §4, §5, §6, §7, §8

T1 sequence (P21554 whole entry): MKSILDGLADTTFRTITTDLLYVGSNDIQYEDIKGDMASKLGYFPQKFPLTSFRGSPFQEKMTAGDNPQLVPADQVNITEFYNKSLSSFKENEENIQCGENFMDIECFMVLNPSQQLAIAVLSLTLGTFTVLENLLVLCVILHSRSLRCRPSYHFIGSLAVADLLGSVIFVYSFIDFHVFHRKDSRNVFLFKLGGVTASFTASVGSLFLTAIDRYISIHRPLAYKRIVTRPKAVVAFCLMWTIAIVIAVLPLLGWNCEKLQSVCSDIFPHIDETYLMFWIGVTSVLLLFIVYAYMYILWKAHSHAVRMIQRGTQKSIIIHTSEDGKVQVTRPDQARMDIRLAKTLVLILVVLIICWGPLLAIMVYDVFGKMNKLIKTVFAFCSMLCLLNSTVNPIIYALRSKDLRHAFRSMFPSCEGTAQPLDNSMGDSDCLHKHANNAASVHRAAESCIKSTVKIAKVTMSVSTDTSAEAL

For `CC1(C(N)=O)CCN(c2cc(N3CCC[C@H]3C(=O)O)nc3c(-c4ccc(Cl)cc4)c(-c4ccccc4Cl)nn23)CC1` [Compound 18, (2S)-1-[7-(4-carbamoyl-4-methyl-1-piperidyl)-2-(2-chlorophenyl)-3-(4-chlorophenyl)pyrazolo[1,5-a]pyrimidin-5-yl]pyrrolidine-2-carboxylic acid], the IC50 (human CB1 receptor [1]) was 56.2 nM and the IC50 (human CB1 receptor [2]) was 109 nM.
`CC1(C(N)=O)CCN(c2cc(N3CC[C@@H]3CC(=O)O)nc3c(-c4ccc(Cl)cc4)c(-c4ccccc4Cl)nn23)CC1` [Compound 19, 2-[(2R)-1-[7-(4-carbamoyl-4-methyl-1-piperidyl)-2-(2-chlorophenyl)-3-(4-chlorophenyl)pyrazolo[1,5-a]pyrimidin-5-yl]azetidin-2-yl]acetic acid] was tested, and the IC50 (human CB1 receptor [1]) was 1480 nM and the IC50 (human CB1 receptor [2]) was > 10000 nM.
In the case of `CN(CC(C)(C)O)c1cc(N2CCC(C)(C(N)=O)CC2)n2nc(-c3ccccc3Cl)c(-c3ccc(Cl)cc3)c2n1` [Compound 20, 1-[2-(2-chlorophenyl)-3-(4-chlorophenyl)-5-[(2-hydroxy-2-methyl-propyl)-methyl-amino]pyrazolo[1,5-a]pyrimidin-7-yl]-4-methyl-piperidine-4-carboxamide], the IC50 (human CB1 receptor [1]) is reported as 5.53 nM and the IC50 (human CB1 receptor [2]) is reported as 22.8 nM.
With `CC1(C(N)=O)CCN(c2cc(N3CC[C@@H](O)C3)nc3c(-c4ccc(Cl)cc4)c(-c4ccccc4Cl)nn23)CC1` [Compound 21, 1-[2-(2-chlorophenyl)-3-(4-chlorophenyl)-5-[(3R)-3-hydroxypyrrolidin-1-yl]pyrazolo[1,5-a]pyrimidin-7-yl]-4-methyl-piperidine-4-carboxamide] the IC50 (human CB1 receptor [1]) was 1.28 nM and the IC50 (human CB1 receptor [2]) was 4.6 nM.
`CN(CCC(N)=O)c1cc(N2CCC(C)(C(N)=O)CC2)n2nc(-c3ccccc3Cl)c(-c3ccc(Cl)cc3)c2n1` [Compound 22, 1-[5-[(3-amino-3-oxo-propyl)-methyl-amino]-2-(2-chlorophenyl)-3-(4-chlorophenyl)pyrazolo[1,5-a]pyrimidin-7-yl]-4-methyl-piperidine-4-carboxamide] showed an IC50 (human CB1 receptor [1]) of 0.99 nM and an IC50 (human CB1 receptor [2]) of 9.15 nM.
`CN(CCC(N)=O)c1cc(N2CCC[C@@H](C(N)=O)C2)n2nc(-c3ccccc3Cl)c(-c3ccc(Cl)cc3)c2n1` [Compound 23, (3R)-1-[5-[(3-amino-3-oxo-propyl)-methyl-amino]-2-(2-chlorophenyl)-3-(4-chlorophenyl)pyrazolo[1,5-a]pyrimidin-7-yl]piperidine-3-carboxamide] was tested, and the IC50 (human CB1 receptor [1]) was 25.5 nM and the IC50 (human CB1 receptor [2]) was 101 nM.
`CN(CCC(N)=O)c1cc(N2CC(CC(N)=O)C2)n2nc(-c3ccccc3Cl)c(-c3ccc(Cl)cc3)c2n1` [Compound 24, 3-[[7-[3-(2-amino-2-oxo-ethyl)azetidin-1-yl]-2-(2-chlorophenyl)-3-(4-chlorophenyl)pyrazolo[1,5-a]pyrimidin-5-yl]-methyl-amino]propanamide] was tested, and the IC50 (human CB1 receptor [1]) was 14.6 nM and the IC50 (human CB1 receptor [2]) was 94.6 nM.
`CN(C)C(=O)CN(C)c1cc(N2CCC(C)(C(N)=O)CC2)n2nc(-c3ccccc3Cl)c(-c3ccc(Cl)cc3)c2n1` [Compound 25, 1-[2-(2-chlorophenyl)-3-(4-chlorophenyl)-5-[[2-(dimethylamino)-2-oxo-ethyl]-methyl-amino]-pyrazolo[1,5-a]pyrimidin-7-yl]-4-methyl-piperidine-4-carboxamide] gave an IC50 (human CB1 receptor [1]) of 6.47 nM and an IC50 (human CB1 receptor [2]) of 17.5 nM.
`CCNC(=O)CN(C)c1cc(N2CCC(C)(C(N)=O)CC2)n2nc(-c3ccccc3Cl)c(-c3ccc(Cl)cc3)c2n1` [Compound 26, 1-[2-(2-chlorophenyl)-3-(4-chlorophenyl)-5-[[2-(ethylamino)-2-oxo-ethyl]-methyl-amino]pyrazolo[1,5-a]pyrimidin-7-yl]-4-methyl-piperidine-4-carboxamide] gave an IC50 (human CB1 receptor [1]) of 5.03 nM and an IC50 (human CB1 receptor [2]) of 30.5 nM.
Work on `CC(=O)NC1(C)CCN(c2cc(N(C)CCC(N)=O)nc3c(-c4ccc(Cl)cc4)c(-c4ccccc4Cl)nn23)CC1` [Compound 27, 3-[[7-(4-acetamido-4-methyl-1-piperidyl)-2-(2-chlorophenyl)-3-(4-chlorophenyl)pyrazolo[1,5-a]pyrimidin-5-yl]-methyl-amino]propanamide] yielded an IC50 (human CB1 receptor [1]) of 1.28 nM and an IC50 (human CB1 receptor [2]) of 4.69 nM.
`CN(CCC(N)=O)c1cc(N2CC[C@H](CC(N)=O)C2)n2nc(-c3ccccc3Cl)c(-c3ccc(Cl)cc3)c2n1` [Compound 28, 3-[[7-[(3R)-3-(2-amino-2-oxo-ethyl)pyrrolidin-1-yl]-2-(2-chlorophenyl)-3-(4-chlorophenyl)pyrazolo[1,5-a]pyrimidin-5-yl]-methyl-amino]propanamide] was tested, and the IC50 (human CB1 receptor [1]) was 18.9 nM and the IC50 (human CB1 receptor [2]) was 93.9 nM.
With `CN(C)C(=O)CN(C)c1cc(N2CCC[C@@H](C(N)=O)C2)n2nc(-c3ccccc3Cl)c(-c3ccc(Cl)cc3)c2n1` [Compound 29, (3R)-1-[2-(2-chlorophenyl)-3-(4-chlorophenyl)-5-[[2-(dimethylamino)-2-oxo-ethyl]-methyl-amino]pyrazolo[1,5-a]pyrimidin-7-yl]piperidine-3-carboxamide] the IC50 (human CB1 receptor [1]) was 34.8 nM and the IC50 (human CB1 receptor [2]) was 114 nM.
Work on `CN(CP(C)(C)=O)c1cc(N2CC[C@H](CC(N)=O)C2)n2nc(-c3ccccc3Cl)c(-c3ccc(Cl)cc3)c2n1` [Compound 30, 2-[(3R)-1-[2-(2-chlorophenyl)-3-(4-chlorophenyl)-5-[dimethylphosphorylmethyl(methyl)amino]pyrazolo[1,5-a]pyrimidin-7-yl]pyrrolidin-3-yl]acetamide] yielded an IC50 (human CB1 receptor [1]) of 679 nM and an IC50 (human CB1 receptor [2]) of 198 nM.
In the case of `CCNC(=O)CN(C)c1cc(N2CC(CC(N)=O)C2)n2nc(-c3ccccc3Cl)c(-c3ccc(Cl)cc3)c2n1` [Compound 31, 2-[1-[2-(2-chlorophenyl)-3-(4-chlorophenyl)-5-[[2-(ethylamino)-2-oxo-ethyl]-methyl-amino]pyrazolo[1,5-a]pyrimidin-7-yl]azetidin-3-yl]acetamide], the IC50 (human CB1 receptor [1]) is reported as 114 nM and the IC50 (human CB1 receptor [2]) is reported as 418 nM.
For `CN(C)C(=O)CN(C)c1cc(N2CC(CC(N)=O)C2)n2nc(-c3ccccc3Cl)c(-c3ccc(Cl)cc3)c2n1` [Compound 32, 2-[1-[2-(2-chlorophenyl)-3-(4-chlorophenyl)-5-[[2-(dimethylamino)-2-oxo-ethyl]-methyl-amino]pyrazolo[1,5-a]pyrimidin-7-yl]azetidin-3-yl]acetamide], the IC50 (human CB1 receptor [1]) was 584 nM and the IC50 (human CB1 receptor [2]) was > 10000 nM.
In the case of `CN(CP(C)(C)=O)c1cc(N2CC(CC(N)=O)C2)n2nc(-c3ccccc3Cl)c(-c3ccc(Cl)cc3)c2n1` [Compound 33, 2-[1-[2-(2-chlorophenyl)-3-(4-chlorophenyl)-5-[dimethylphosphorylmethyl(methyl)amino]pyrazolo[1,5-a]pyrimidin-7-yl]azetidin-3-yl]acetamide], the IC50 (human CB1 receptor [1]) is reported as > 10000 nM and the IC50 (human CB1 receptor [2]) is reported as 116 nM.
For `CN(CP(C)(C)=O)c1cc(N2CCC[C@@H](C(N)=O)C2)n2nc(-c3ccccc3Cl)c(-c3ccc(Cl)cc3)c2n1` [Compound 34, (3R)-1-[2-(2-chlorophenyl)-3-(4-chlorophenyl)-5-[dimethylphosphorylmethyl(methyl)amino]pyrazolo[1,5-a]pyrimidin-7-yl]piperidine-3-carboxamide], the IC50 (human CB1 receptor [1]) was > 10000 nM and the IC50 (human CB1 receptor [2]) was 155 nM.

Source: patent US20250145628A1, “PYRAZOLOPYRIMIDINES, COMPOSITIONS COMPRISING THEM AND USES THEREOF” (Novo Nordisk A/S, priority 2022, published 2025)
